Assay results reported in US11090319B2, “Therapeutic uses of pharmaceutical compositions comprising cyclic boronic acid ester derivatives” (Melinta Subsidiary Corp., priority 2010, dated 2021).

Legend:
Assay in all cases: Ceftazidime MIC with fixed concentration of BLI
Type in all cases: cell-based
[1] = test system: ec306 Escherichia coli SHV-2; settings: ec306 SHV-2
Method: (§1) Next, ceftazidime potentiation activity of several cyclic boronic acid ester derivatives was tested using a larger panel of strains expressing β-lactamase hydrolyzing enzymes. Ceftazidime MICs were determined alone and in the presence of fixed concentrations of various cyclic boronic acid ester derivatives.

[2] = test system: KP1005 Klebsiella pneumoniae CTX-M-14; settings: KP1005 CTX-M-14
Method: as §1

[3] = test system: ec303 Escherichia coli TEM-12; settings: ec303 TEM-12
Method: as §1

[4] = test system: KX1000 Klebsiella oxytoca OXA-2; settings: KX1000 OXA-2
Method: as §1

[5] = test system: ec302 Escherichia coli TEM-10; settings: ec302 TEM-10
Method: as §1

[6] = test system: KP1010 Klebsiella pneumoniae SHV-12; settings: KP1010 SHV-12
Method: as §1

[7] = test system: EC1004 Escherichia coli CMY-2; settings: EC1004 CMY-2
Method: as §1

[8] = test system: KP1007 Klebsiella pneumoniae OXA-10; settings: KP1007 OXA-10
Method: as §1

[9] = test system: PAM2035 Pseudomonas aeruginosa ampC mexA:tet
Method: as §1

[10] = test system: ec308 Escherichia coli SHV-5; settings: ec308 SHV-5
Method: as §1

[11] = test system: EC1014 Escherichia coli DHA-1; settings: EC1014 DHA-1
Method: as §1

[12] = test system: ec307 Escherichia coli SHV-4; settings: ec307 SHV-4
Method: as §1

[13] = test system: KP1008 Klebsiella pneumoniae KPC-2; settings: KP1008 KPC-2
Method: as §1

[14] = test system: AB1057 Acinetobacter baumannii OXA-58; settings: AB1057 OXA-58
Method: as §1

[15] = test system: EC1008 Escherichia coli CTX-M3
Method: as §1

[16] = test system: EC1006 Escherichia coli FOX-5; settings: EC1006 FOX-5
Method: as §1

[17] = test system: KP1009 Klebsiella pneumoniae CTX-M-15; settings: KP1009 CTX-M-15
Method: as §1

[18] = test system: EC1012 Escherichia coli TEM-12; settings: EC1012 TEM-12
Method: as §1

[19] = test system: CF1000 Citrobacter freundii Hyper AmpC expression
Method: as §1

[20] = test system: EC1009 Escherichia coli TEM-10; settings: EC1009 TEM-10
Method: as §1

[21] = test system: ECL1002 Enterobacter cloacae Hyper AmpC expression
Method: as §1

[22] = test system: KP1004 Klebsiella pneumoniae KPC-2; settings: KP1004 KPC-2
Method: as §1

[23] = test system: pa1063 Pseudomonas aeruginosa GES-1; settings: pa1063 GES-1
Method: as §1

[24] = test system: ec309 Escherichia coli MIR-1; settings: ec309 MIR-1
Method: as §1

[25] = test system: AB1054 Acinetobacter baumannii OXA-23; settings: AB1054 OXA-23
Method: as §1

[26] = test system: ec300 Escherichia coli TEM-3; settings: ec300 TEM-3
Method: as §1

[27] = test system: EC1010 Escherichia coli CMY-6; settings: EC1010 CMY-6
Method: as §1

[28] = test system: ec301 Escherichia coli TEM-6; settings: ec301 TEM-6
Method: as §1

[29] = test system: ec310 Escherichia coli ACT-1; settings: ec310 ACT-1
Method: as §1

[30] = test system: EC1011 Escherichia coli TEM-26; settings: EC1011 TEM-26
Method: as §1

[31] = test system: KP1012 Klebsiella pneumoniae SHV-18; settings: KP1012 SHV-18
Method: as §1

[32] = Escherichia coli, read-out: Ceftazidime MIC Alone
[33] = Klebsiella pneumoniae, read-out: Ceftazidime MIC Alone
[34] = Pseudomonas aeruginosa, read-out: Ceftazidime MIC Alone
[35] = Acinetobacter baumannii, read-out: Ceftazidime MIC Alone

Compound: CC(C)(O/N=C(\C(=O)N[C@@H]1C(=O)N2C(C(=O)[O-])=C(C[n+]3ccccc3)CS[C@H]12)c1csc(N)n1)C(=O)O [Ceftazidime, reference compound]
- MIC [1, 32]: > 8 µg/mL
- MIC [2, 33]: > 8 µg/mL
- MIC [3, 32]: > 8 µg/mL
- MIC ([4]; Klebsiella oxytoca, read-out: Ceftazidime MIC Alone): > 8 µg/mL
- MIC [5, 32]: > 8 µg/mL
- MIC [6, 33]: > 8 µg/mL
- MIC [7, 32]: > 8 µg/mL
- MIC [8, 33]: > 8 µg/mL
- MIC [9, 34]: > 8 µg/mL
- MIC [10, 32]: > 8 µg/mL
- MIC [11, 32]: > 8 µg/mL
- MIC [12, 32]: > 8 µg/mL
- MIC [13, 33]: 1 to 8 µg/mL
- MIC [14, 35]: > 8 µg/mL
- MIC [15, 32]: > 8 µg/mL
- MIC [16, 32]: > 8 µg/mL
- MIC [17, 33]: > 8 µg/mL
- MIC [18, 32]: > 8 µg/mL
- MIC ([19]; Citrobacter freundii, read-out: Ceftazidime MIC Alone): > 8 µg/mL
- MIC [20, 32]: > 8 µg/mL
- MIC ([21]; Enterobacter cloacae, read-out: Ceftazidime MIC Alone): > 8 µg/mL
- MIC [22, 33]: > 8 µg/mL
- MIC [23, 34]: > 8 µg/mL
- MIC [24, 32]: > 8 µg/mL
- MIC [25, 35]: > 8 µg/mL
- MIC [26, 32]: > 8 µg/mL
- MIC [27, 32]: > 8 µg/mL
- MIC [28, 32]: > 8 µg/mL
- MIC [29, 32]: > 8 µg/mL
- MIC [30, 32]: > 8 µg/mL
- MIC [31, 33]: > 8 µg/mL

Compound: CC(=O)N[C@H]1CCC(CC(=O)O)OB1O (stereo partly drawn) [Compound 3, 2-((3R)-3-acetamido-2-hydroxy-1,2-oxaborinan-6-yl)acetic acid]
- Ceftazidime MIC with cyclic boronic acid ester derivative ([1]; derivative at 10 μg/mL): Z (MIC of greater than 8 μg/mL)
- Ceftazidime MIC with cyclic boronic acid ester derivative ([2]; derivative at 10 μg/mL): Z (MIC of greater than 8 μg/mL)
- Ceftazidime MIC with cyclic boronic acid ester derivative ([3]; derivative at 10 μg/mL): Z (MIC of greater than 8 μg/mL)
- Ceftazidime MIC with cyclic boronic acid ester derivative ([4]; derivative at 10 μg/mL): Z (MIC of greater than 8 μg/mL)
- Ceftazidime MIC with cyclic boronic acid ester derivative ([5]; derivative at 10 μg/mL): Z (MIC of greater than 8 μg/mL)
- Ceftazidime MIC with cyclic boronic acid ester derivative ([6]; derivative at 10 μg/mL): Z (MIC of greater than 8 μg/mL)
- Ceftazidime MIC with cyclic boronic acid ester derivative ([7]; derivative at 10 μg/mL): Y (MIC of greater than 1 μg/mL to 8 μg/mL)
- Ceftazidime MIC with cyclic boronic acid ester derivative ([8]; derivative at 10 μg/mL): Z (MIC of greater than 8 μg/mL)
- Ceftazidime MIC with cyclic boronic acid ester derivative ([9]; derivative at 10 μg/mL): Z (MIC of greater than 8 μg/mL)
- Ceftazidime MIC with cyclic boronic acid ester derivative ([10]; derivative at 10 μg/mL): Z (MIC of greater than 8 μg/mL)
- Ceftazidime MIC with cyclic boronic acid ester derivative ([11]; derivative at 10 μg/mL): Y (MIC of greater than 1 μg/mL to 8 μg/mL)
- Ceftazidime MIC with cyclic boronic acid ester derivative ([12]; derivative at 10 μg/mL): Z (MIC of greater than 8 μg/mL)
- Ceftazidime MIC with cyclic boronic acid ester derivative ([13]; derivative at 10 μg/mL): X (MIC of 1 μg/mL or less)
- Ceftazidime MIC with cyclic boronic acid ester derivative ([14]; derivative at 10 μg/mL): Z (MIC of greater than 8 μg/mL)
- Ceftazidime MIC with cyclic boronic acid ester derivative ([15]; derivative at 10 μg/mL): Y (MIC of greater than 1 μg/mL to 8 μg/mL)
- Ceftazidime MIC with cyclic boronic acid ester derivative ([16]; derivative at 10 μg/mL): Y (MIC of greater than 1 μg/mL to 8 μg/mL)
- Ceftazidime MIC with cyclic boronic acid ester derivative ([17]; derivative at 10 μg/mL): Z (MIC of greater than 8 μg/mL)
- Ceftazidime MIC with cyclic boronic acid ester derivative ([18]; derivative at 10 μg/mL): Z (MIC of greater than 8 μg/mL)
- Ceftazidime MIC with cyclic boronic acid ester derivative ([19]; derivative at 10 μg/mL): Z (MIC of greater than 8 μg/mL)
- Ceftazidime MIC with cyclic boronic acid ester derivative ([20]; derivative at 10 μg/mL): Z (MIC of greater than 8 μg/mL)
- Ceftazidime MIC with cyclic boronic acid ester derivative ([21]; derivative at 10 μg/mL): Z (MIC of greater than 8 μg/mL)
- Ceftazidime MIC with cyclic boronic acid ester derivative ([22]; derivative at 10 μg/mL): Y (MIC of greater than 1 μg/mL to 8 μg/mL)
- Ceftazidime MIC with cyclic boronic acid ester derivative ([23]; derivative at 10 μg/mL): Z (MIC of greater than 8 μg/mL)
- Ceftazidime MIC with cyclic boronic acid ester derivative ([24]; derivative at 10 μg/mL): Y (MIC of greater than 1 μg/mL to 8 μg/mL)
- Ceftazidime MIC with cyclic boronic acid ester derivative ([25]; derivative at 10 μg/mL): Z (MIC of greater than 8 μg/mL)
- Ceftazidime MIC with cyclic boronic acid ester derivative ([26]; derivative at 10 μg/mL): Z (MIC of greater than 8 μg/mL)
- Ceftazidime MIC with cyclic boronic acid ester derivative ([27]; derivative at 10 μg/mL): Z (MIC of greater than 8 μg/mL)
- Ceftazidime MIC with cyclic boronic acid ester derivative ([28]; derivative at 10 μg/mL): Z (MIC of greater than 8 μg/mL)
- Ceftazidime MIC with cyclic boronic acid ester derivative ([29]; derivative at 10 μg/mL): Y (MIC of greater than 1 μg/mL to 8 μg/mL)
- Ceftazidime MIC with cyclic boronic acid ester derivative ([30]; derivative at 10 μg/mL): Z (MIC of greater than 8 μg/mL)
- Ceftazidime MIC with cyclic boronic acid ester derivative ([31]; derivative at 10 μg/mL): Z (MIC of greater than 8 μg/mL)
